Data taken from US12391679B2, “Benzamide-substituted bicyclic imidazo- and pyrazolo-fused -pyridine, -pyrimide, and -pyridazine compounds for treatment of inflammatory diseases” (ONCO3R Therapeutics BV, priority 2019, dated 2025).

What was measured:
SIK1 = molecular target: T1, SIK1 (Homo sapiens, UniProt P57059); assay: ADP-Glo kinase assay, SIK1; assay type: biochemical
T1 construct: purchased Carna Biosciences 02-131
Procedure, shortened: (§1)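 Kinase reactions ran 120 min at room temperature after ATP addition to enzyme-substrate mix. Remaining ATP was depleted (40 min) and ADP converted to ATP for luciferase detection (30 min), signal rising with activity. Final 1% DMSO and 10 μM staurosporine served as negative and positive controls.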

SIK3 = molecular target: T2, SIK3 (Homo sapiens, UniProt Q9Y2K2); assay: ADP-Glo kinase assay, SIK3; assay type: biochemical
T2 construct: purchased SignalChem S12-11G-100
T2 sequence (Q9Y2K2 59-365 limits assumed): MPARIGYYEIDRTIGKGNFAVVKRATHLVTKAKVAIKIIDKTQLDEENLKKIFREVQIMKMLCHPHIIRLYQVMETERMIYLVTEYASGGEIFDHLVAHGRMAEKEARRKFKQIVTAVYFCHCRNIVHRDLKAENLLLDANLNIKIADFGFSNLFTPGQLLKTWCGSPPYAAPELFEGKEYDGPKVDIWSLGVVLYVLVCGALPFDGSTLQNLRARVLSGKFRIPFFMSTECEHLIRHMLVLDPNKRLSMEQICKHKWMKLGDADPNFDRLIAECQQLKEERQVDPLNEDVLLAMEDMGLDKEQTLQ
Procedure, shortened: as §1

[1] = system: LPS-induced TNFα in monocytes; assay: Monocytes assay: LPS-triggered TNFα (ELISA); assay type: cell-based, human; conditions: Homo sapiens, Monocyte, LPS-triggered TNFα inhibition
Method: This assay evaluates illustrative compounds of the invention for their inhibition of LPS-induced TNFα and LPS triggered IL-10 secretion in monocytes.
PBMCs are isolated from human blood samples (buffycoats). The buffy coat is aseptically transferred into a 50 mL Falcon tube, and diluted 1/2 in PBS. Falcon tubes are filled with 20 mL Lymphoprep™, on top of which 25 mL of the buffy coat is carefully added, tubes are centrifuged for 35 min at 400 g in temperature controlled centrifuge, without brake, at 25° C. PBMCs are aspirated from the white interface layer between sample and Lymphoprep™. PBMCs are washed five times in PBS.
PBMCs are centrifuged at 300×g for 10 min and resuspended at a density of 1.0*10^7 cells/80 μL Miltenyi buffer (PBS, pH 7.4, 1% FBS, 2 mM EDTA).
Starting from this point of the protocol all steps are performed on ice. 20 μL of CD14+ micro-beads are added per 1.0*10^7 cells, the tube is mixed and incubated for 15 min in the fridge at 4° C. Cell suspension volume is adjusted to total volume of 100 mL using Miltenyi buffer, mixed gently and subsequently centrifuged for 10 min at 300×g. Supernatant is discarded and cell pellet is resuspended in 12 mL of Miltenyi buffer.
Four LS columns are placed in the MACS Separator (magnet) from Miltenyi Biotec, and are prewet by rinsing with 3 mL of MACS buffer per column. Three mL of cell suspension is added onto the column (max 1*10^8 of labelled cells/column), and columns are subsequently washed 3 times with 3 mL of Miltenyi buffer.
The columns are removed from the magnets, and 5 mL of Miltenyi buffer are added to the column to flush out the CD14+ fraction by pushing the plunger into the column. The flushed fractions are collected in a fresh 50 mL Falcon and volume is adjusted to 30 mL using Miltenyi buffer, cells are centrifuged for 10 min at 300×g. The obtained cell pellet is resuspended in 10 mL RPMI w/o FBS, and cell density is determined using a hematologic analyser (Sysmex XS-500i).
A compound dilution plate is made in 100% DMSO by 3-fold dilution of 10 mM stock solution. An intermediate dilution plate (10× final concentration) is made by diluting the compound dilution plate 50-fold in RPMI medium.
10 μL of the 10× final concentration compound is added to the cells and incubated for 1 h at 37° C. before addition of trigger. No trigger conditions/trigger conditions are spiked with equal final DMSO concentrations of 0.2% DMSO. 10 μL of 10×LPS (final conc. 200 ng/mL) solution are added to all wells except for the ‘no trigger wells’ where 10 μL medium is added. Supernatant is collected after 4 h of LPS triggering.
The plate is then washed once with PBST (PBS+0.05% Tween20) and once with PBS followed by the addition of 100 μL of blocking buffer (1% Bovine Serum Albumin (BSA)-5% Sucrose) and plates are sealed and incubated for at least 4 h at RT. After washing the plate once with PBST and once with PBS, […]. Plates are washed twice with PBST, and once with PBS, after which 35 μL of the detection antibody is added (final concentration 0.25 μg/mL diluted in dilution buffer) and plates are incubated for at least 2 h at RT. Plates are washed twice with PBST, and once with PBS, whereafter 35 μL of Strep-HRP conjugate (0.5 μg/mL final concentration diluted in dilution buffer) is added. Plates are incubated in the dark, at RT for at least 45 min but no longer than 1 h. Plates are washed twice with PBST, and once with PBS. Thereafter, 50 μL of luminol substrate is added to each well (prepared according to manufacturer's instructions), and incubated for 5 min at RT protected from light.
To measure the inhibition of LPS induced TNFα, percentage inhibition (PIN) values are calculated for all concentrations tested, compared to controls.

SIK2 = molecular target: T3, SIK2 (Homo sapiens, UniProt Q9H0K1); assay: ADP-Glo kinase assay, SIK2; assay type: biochemical
T3 construct: purchased ThermoFisher Scientific PV4792
T3 sequence (Q9H0K1 whole entry): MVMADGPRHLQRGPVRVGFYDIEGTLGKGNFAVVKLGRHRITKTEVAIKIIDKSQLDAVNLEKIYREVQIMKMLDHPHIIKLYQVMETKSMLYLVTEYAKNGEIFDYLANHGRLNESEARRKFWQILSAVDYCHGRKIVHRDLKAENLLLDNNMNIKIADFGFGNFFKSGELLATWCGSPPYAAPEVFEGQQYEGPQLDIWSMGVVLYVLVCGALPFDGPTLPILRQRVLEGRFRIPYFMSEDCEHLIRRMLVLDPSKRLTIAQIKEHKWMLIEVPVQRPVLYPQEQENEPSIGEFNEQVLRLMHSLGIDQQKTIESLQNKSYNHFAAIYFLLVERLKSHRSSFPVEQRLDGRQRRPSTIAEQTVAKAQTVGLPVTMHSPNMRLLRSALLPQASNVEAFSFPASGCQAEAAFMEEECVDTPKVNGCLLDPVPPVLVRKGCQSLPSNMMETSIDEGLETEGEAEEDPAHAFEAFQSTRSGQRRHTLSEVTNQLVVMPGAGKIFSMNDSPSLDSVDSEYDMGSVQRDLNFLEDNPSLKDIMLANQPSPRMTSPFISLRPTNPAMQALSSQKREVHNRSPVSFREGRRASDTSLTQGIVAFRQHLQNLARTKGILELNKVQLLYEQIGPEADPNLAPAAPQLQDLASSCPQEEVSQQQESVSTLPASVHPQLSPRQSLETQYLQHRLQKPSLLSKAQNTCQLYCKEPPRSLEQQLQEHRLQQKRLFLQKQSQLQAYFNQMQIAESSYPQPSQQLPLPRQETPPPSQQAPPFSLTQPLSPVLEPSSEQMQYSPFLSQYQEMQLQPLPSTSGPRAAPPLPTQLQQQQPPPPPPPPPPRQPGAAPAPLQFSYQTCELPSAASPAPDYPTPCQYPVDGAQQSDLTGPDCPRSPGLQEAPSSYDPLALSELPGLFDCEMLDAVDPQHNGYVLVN
Procedure, shortened: as §1

T1 sequence (P57059 whole entry): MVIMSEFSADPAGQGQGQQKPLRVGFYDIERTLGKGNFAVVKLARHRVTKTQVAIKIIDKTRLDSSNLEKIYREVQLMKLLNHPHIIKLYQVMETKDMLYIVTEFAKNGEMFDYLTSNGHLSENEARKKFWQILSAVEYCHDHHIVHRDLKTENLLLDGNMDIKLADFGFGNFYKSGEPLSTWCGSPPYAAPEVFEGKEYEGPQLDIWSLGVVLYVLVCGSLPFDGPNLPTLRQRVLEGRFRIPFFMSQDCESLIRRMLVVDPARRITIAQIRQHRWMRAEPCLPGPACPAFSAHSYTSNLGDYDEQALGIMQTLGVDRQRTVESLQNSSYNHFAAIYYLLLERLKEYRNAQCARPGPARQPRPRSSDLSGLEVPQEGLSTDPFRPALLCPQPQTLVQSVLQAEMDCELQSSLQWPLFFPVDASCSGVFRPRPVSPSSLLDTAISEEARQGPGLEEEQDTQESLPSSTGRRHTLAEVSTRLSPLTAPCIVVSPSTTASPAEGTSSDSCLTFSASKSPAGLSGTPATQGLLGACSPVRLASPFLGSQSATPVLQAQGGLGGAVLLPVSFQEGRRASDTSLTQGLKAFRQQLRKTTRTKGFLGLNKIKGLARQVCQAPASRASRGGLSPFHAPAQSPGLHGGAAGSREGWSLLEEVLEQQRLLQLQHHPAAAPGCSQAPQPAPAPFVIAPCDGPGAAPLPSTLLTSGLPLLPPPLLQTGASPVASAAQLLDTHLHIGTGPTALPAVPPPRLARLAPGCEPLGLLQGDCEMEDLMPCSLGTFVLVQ

IC50 (SIK1) | IC50 (SIK3) | EC50 [1] | IC50 (SIK2) | Structure (SMILES)
> 500 nM | 0.01 to 10 nM | 100 to 1000 nM | > 500 nM | CNC(=O)COCC(C)(C)c1ccc2c(-c3cc(OC)c(C(=O)N[C@@H]4C[C@@H]4F)c(OC(F)F)c3)cnn2c1 [Cpd 253, 2-(difluoromethoxy)-4-[6-[1,1-dimethyl-2-[2-(methylamino)-2-oxo-ethoxy]ethyl]pyrazolo[1,5-a]pyridin-3-yl]-N-[(1R,2S)-2-fluorocyclopropyl]-6-methoxy-benzamide]
> 500 nM | 10 to 100 nM | 100 to 1000 nM | > 500 nM | COc1cc(-c2cnn3cc(C(C)(C)OCCN4CCOCC4)ccc23)cc(OC(F)F)c1C(=O)N[C@@H]1C[C@@H]1F [Cpd 255, 2-(difluoromethoxy)-N-[(1R,2S)-2-fluorocyclopropyl]-6-methoxy-4-[6-[1-methyl-1-(2-morpholinoethoxy)ethyl]pyrazolo[1,5-a]pyridin-3-yl]benzamide]
> 500 nM | 0.01 to 10 nM | 100 to 1000 nM | > 500 nM | COc1cc(-c2cnn3cc(C(C)(C)COCC4COC4)ccc23)cc(OC(F)F)c1C(=O)N[C@@H]1C[C@@H]1F [Cpd 262, 2-(difluoromethoxy)-4-[6-[1,1-dimethyl-2-(oxetan-3-ylmethoxy)ethyl]pyrazolo[1,5-a]pyridin-3-yl]-N-[(1R,2S)-2-fluorocyclopropyl]-6-methoxy-benzamide]
> 500 nM | 10 to 100 nM | 100 to 1000 nM | > 500 nM | COc1cc(-c2cnn3cc(C(C)(C)COC4COC4)ccc23)cc(OC(F)F)c1C(=O)N[C@@H]1C[C@@H]1F [Cpd 265, 2-(difluoromethoxy)-4-[6-[1,1-dimethyl-2-(oxetan-3-yloxy)ethyl]pyrazolo[1,5-a]pyridin-3-yl]-N-[(1R,2S)-2-fluorocyclopropyl]-6-methoxy-benzamide]
> 500 nM | 10 to 100 nM | 100 to 1000 nM | > 500 nM | COc1cc(-c2cnn3cc(C(C)(C)NCCO)ccc23)cc(OC(F)F)c1C(=O)N[C@@H]1C[C@@H]1F [Cpd 268, 2-(difluoromethoxy)-N-[(1R,2S)-2-fluorocyclopropyl]-4-[6-[1-(2-hydroxyethylamino)-1-methyl-ethyl]pyrazolo[1,5-a]pyridin-3-yl]-6-methoxy-benzamide]
> 500 nM | 10 to 100 nM | 100 to 1000 nM | > 500 nM | COC(=O)NC1(c2ccc3c(-c4cc(OC)c(C(=O)N[C@@H]5C[C@@H]5F)c(OC(F)F)c4)cnn3c2)CCC1 [Cpd 272, methyl N-[1-[3-[3-(difluoromethoxy)-4-[[(1R,2S)-2-fluorocyclopropyl]carbamoyl]-5-methoxy-phenyl]pyrazolo[1,5-a]pyridin-6-yl]cyclobutyl]carbamate]
> 500 nM | 10 to 100 nM | 100 to 1000 nM | > 500 nM | CNC(=O)C1(c2ccc3c(-c4cc(OC)c(C(=O)N[C@@H]5C[C@@H]5F)c(OC(F)F)c4)cnn3c2)CCC1 [Cpd 273, 2-(difluoromethoxy)-N-[(1R,2S)-2-fluorocyclopropyl]-6-methoxy-4-[6-[1-(methylcarbamoyl)cyclobutyl]pyrazolo[1,5-a]pyridin-3-yl]benzamide]
